Values after ≈ are worked out from the molar mass of the structure shown.
Experiments:
Bacillus subtilis [1] = assay: Antibacterial MIC testing, microdilution, B. subtilis; type: cell-based; details: for MIC: Bacillus subtilis, read-out: MIC antibacterial activity; for B. subtilis MIC: cation-adjusted Mueller-Hinton Broth, 24 h, 37°C
[2] = test system: membrane permeable strain (BAS3023) of Escherichia coli; assay: Antibacterial MIC testing, microdilution, E. coli; type: cell-based; details: 24 h; for E. coli MIC: membrane permeable strain of E. coli, cation-adjusted Mueller-Hinton Broth, 37°C
E. coli topoisomerase I = E. coli topoisomerase I (Escherichia coli, UniProt P06612); assay: E. coli topoisomerase I relaxation inhibition assay with supercoiled plasmid DNA; type: biochemical; details: relaxation of supercoiled pBAD/Thio plasmid, 30 min at 37°C
E. coli DNA gyrase = E. coli DNA gyrase (Escherichia coli, UniProt P0AES4+P0AES6); assay: E. coli DNA gyrase supercoiling assay; type: biochemical; details: for E. coli DNA gyrase IC50: supercoiling assay, relaxed plasmid DNA
Bacillus subtilis [3] = details: cited from earlier work
[4] = test system: membrane permeable strain (BAS3023) of Escherichia coli; details: cited from earlier work
S. rolfsii = details: cited from earlier work

E. coli DNA gyrase, sequence (P0AES4 whole entry, one chain of several): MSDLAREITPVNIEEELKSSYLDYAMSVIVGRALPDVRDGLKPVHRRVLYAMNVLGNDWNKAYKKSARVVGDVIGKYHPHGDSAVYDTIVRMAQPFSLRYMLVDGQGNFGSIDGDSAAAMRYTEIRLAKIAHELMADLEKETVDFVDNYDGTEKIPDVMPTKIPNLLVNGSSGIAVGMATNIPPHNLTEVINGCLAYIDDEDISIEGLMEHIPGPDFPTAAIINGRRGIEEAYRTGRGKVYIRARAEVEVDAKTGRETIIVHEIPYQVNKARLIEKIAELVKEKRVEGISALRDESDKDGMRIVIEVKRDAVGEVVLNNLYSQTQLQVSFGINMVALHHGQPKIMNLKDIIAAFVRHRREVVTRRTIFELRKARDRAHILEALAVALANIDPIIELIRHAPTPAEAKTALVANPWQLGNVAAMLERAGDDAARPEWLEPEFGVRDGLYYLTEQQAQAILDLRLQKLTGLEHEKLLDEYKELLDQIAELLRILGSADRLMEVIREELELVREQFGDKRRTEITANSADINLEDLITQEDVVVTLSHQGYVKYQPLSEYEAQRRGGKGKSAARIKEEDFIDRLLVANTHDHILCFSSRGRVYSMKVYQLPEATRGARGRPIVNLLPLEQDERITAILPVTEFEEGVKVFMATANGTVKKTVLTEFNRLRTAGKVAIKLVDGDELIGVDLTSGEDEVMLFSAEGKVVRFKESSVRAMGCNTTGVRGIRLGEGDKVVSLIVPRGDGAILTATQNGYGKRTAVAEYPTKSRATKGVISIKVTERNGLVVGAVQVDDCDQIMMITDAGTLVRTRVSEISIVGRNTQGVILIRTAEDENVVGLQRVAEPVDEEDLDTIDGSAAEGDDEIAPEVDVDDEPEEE
E. coli topoisomerase I, sequence (P06612 whole entry): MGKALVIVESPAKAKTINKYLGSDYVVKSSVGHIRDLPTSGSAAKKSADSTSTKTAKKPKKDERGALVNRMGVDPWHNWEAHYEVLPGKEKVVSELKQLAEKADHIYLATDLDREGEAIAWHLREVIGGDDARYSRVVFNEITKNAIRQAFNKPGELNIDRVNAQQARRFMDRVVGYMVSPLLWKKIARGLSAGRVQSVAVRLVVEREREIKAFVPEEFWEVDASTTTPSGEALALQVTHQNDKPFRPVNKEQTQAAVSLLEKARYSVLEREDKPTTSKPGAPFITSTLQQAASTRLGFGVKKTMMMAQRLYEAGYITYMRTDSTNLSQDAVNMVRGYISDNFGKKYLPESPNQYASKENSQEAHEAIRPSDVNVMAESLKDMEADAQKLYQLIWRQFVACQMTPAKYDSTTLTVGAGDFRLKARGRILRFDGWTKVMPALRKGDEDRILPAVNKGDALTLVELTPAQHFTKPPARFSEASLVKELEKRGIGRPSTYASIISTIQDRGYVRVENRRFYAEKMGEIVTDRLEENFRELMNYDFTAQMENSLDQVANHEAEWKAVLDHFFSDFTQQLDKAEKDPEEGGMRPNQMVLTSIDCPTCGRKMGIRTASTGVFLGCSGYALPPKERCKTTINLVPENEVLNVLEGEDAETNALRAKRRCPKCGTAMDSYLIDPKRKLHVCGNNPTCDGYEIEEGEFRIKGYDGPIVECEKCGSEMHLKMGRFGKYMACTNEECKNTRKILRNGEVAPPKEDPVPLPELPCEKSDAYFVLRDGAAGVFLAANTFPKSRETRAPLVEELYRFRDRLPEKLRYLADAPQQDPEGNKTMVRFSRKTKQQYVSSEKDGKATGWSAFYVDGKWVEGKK

For `Nc1ccc(/N=N/c2ccccc2)c(N)c1` [Compound 18], the MIC (Bacillus subtilis [1]) was 200 to 400 µM (≈ 42.5 to 84.9 µg/mL) and the MIC ([2]; Escherichia coli, read-out: E. coli MIC) was 200 to 400 µM (≈ 42.5 to 84.9 µg/mL).
In the case of `O=C(O)c1ccc(OC(=O)c2ccc(O)cc2O)cc1O` [Compound 11c], the “E. coli Topo I inhibition IC50” value (E. coli topoisomerase I) is reported as “complete loss”, the IC50 (E. coli DNA gyrase) is reported as greater than 1 mM and the “E. coli DNA gyrase IC50” value (E. coli DNA gyrase) is reported as “complete loss”. The “B. subtilis MIC” value (Bacillus subtilis [1]) was “complete loss” and the “E. coli MIC” value [2] was “complete loss”.
With `CCCCCc1cc(O)cc(O)c1C(=O)O` [Compound 4, 2,4-dihydroxy-6-pentylbenzoic acid] the IC50 (E. coli DNA gyrase) was greater than 1 mM, the “E. coli DNA gyrase IC50” value (E. coli DNA gyrase) was “no inhibitory activity” and the “B. subtilis MIC” value (Bacillus subtilis [1]) was “no inhibitory activity”. The “E. coli MIC” value [2] was “no inhibitory activity”.
For `CCCCCc1cc(OC(=O)c2c(O)cc(O)cc2CCCCC)cc(O)c1C(=O)O` [Anziaic acid (synthetic sample), anziaic acid], the “E. coli MIC” value [2] is listed as 100 µM, the “MIC against Bacillus subtilis” value (Bacillus subtilis [3]) is listed as 6 µg/mL (≈ 13.9 µM) and the “MIC against membrane permeable strain (BAS3023) of Escherichia coli” value [4] is listed as 12 µg/mL.
For `COC(=O)c1c(C)cc(OC(=O)c2c(C)cc(O)c(C=O)c2O)c(C)c1O` [atranorin], the “ED50 antifungal activity against S. rolfsii” value (S. rolfsii) is listed as 39.70 µg/mL (≈ 106 µM).
In the case of `CCCCCc1cc(O)cc(O)c1C(=O)Oc1cc(CCCCC)c2c(c1)OC(C)(C)OC2=O` [Compound 14], the “E. coli Topo I inhibition IC50” value (E. coli topoisomerase I) is reported as “inactive”, the IC50 (E. coli DNA gyrase) is reported as greater than 1 mM and the “E. coli DNA gyrase IC50” value (E. coli DNA gyrase) is reported as “inactive”.
`O=C(O)c1cc(/N=N/c2cccc([N+](=O)[O-])c2)ccc1O` [Compound 19] gave an MIC (Bacillus subtilis [1]) of 200 to 400 µM (≈ 57.4 to 115 µg/mL).
In the case of `CCCCCc1cc(OC(=O)c2c(CCCCC)cc(OCc3ccccc3)cc2OCc2ccccc2)cc(O)c1C(=O)OCc1ccccc1` [Compound 6, benzyl 4-((2,4-bis(benzyloxy)-6-pentylbenzoyl)oxy)-2-hydroxy-6-pentylbenzoate], the “E. coli Topo I inhibition IC50” value (E. coli topoisomerase I) is reported as “inactive”, the IC50 (E. coli DNA gyrase) is reported as greater than 1 mM and the “E. coli DNA gyrase IC50” value (E. coli DNA gyrase) is reported as “inactive”.
Compound `O=C(OCc1ccccc1)c1ccc(OC(=O)c2ccc(OCc3ccccc3)cc2OCc2ccccc2)cc1O` [Compound 10c] has an IC50 (E. coli DNA gyrase) greater than 1 mM.

Source: article PMC3867937 (MedChemComm, 2013)
